For the data set, the system named is Calu-3 cells. In words: Cellular tolerability test: TEER of Calu-3 monolayers. The format is cell-based, human. Particulars: for TEER after 2 hours Mean [%]: in KRB; for effect on vitality of Calu-3 cells (in words): summary of Table 1. From the text:
In addition to the physicochemical properties of drug formulations and their stability, either as solution or dispersed systems, it is helpful to investigate the cellular tolerability of such drug formulations in a cell culture test system. For this purpose the bronchial cell line Calu-3 was used as an in vitro model for toxicity assessment. Calu-3 represents a human submucosal adenocarcinoma cell line that forms tight, polarized and well differentiated monolayers with apical microvilli and tight junctional complexes. In contrast to other cell lines, Calu-3 cells generate extracellular mucus. […] In addition, it has been shown that loss of monolayer integrity is paralleled by a decrease in TEER to values below 600Ω·cm^2 and an increase in permeability. […] Since toxicity is paralleled by a loss of the monolayer integrity, a decrease in TEER of more than 50% is indicative for the toxicity of a test compound. […] The Calu-3 cell tests offer the possibility to investigate potential effects of the drug substance as well as the influence of excipients or formulation constituents.
TEER was determined in physiological Krebs Ringer buffer (KRB) for two hours after the application of the different formulations or excipients. A decrease of the measured resistance indicated an affection of intact epithelial cell-cell contacts (tight junctions), which is an extremely sensitive parameter to determine toxic effects. To assess whether such cell damage was reversible, the cells were incubated for 24 h in cell culture subsequently to the incubation with the test formulations.

Setting [1] is: conc. (undiluted), after 24 h in cell culture following incubation.
Setting [2] is: conc. (undiluted; stock concentration given with each formulation name).
Setting [3] is: dilution 1:5, after 24 h in cell culture following incubation.
The mark [4] stands for this setting: dilution 1:10, after 24 h in cell culture following incubation.

“And” between values parts separate entries of the source, which are not always exact repeats. Identical values can stand only once.

The source of these data is patent US20090025713A1, “Nebulised Antibiotics for Inhalation Therapy” (priority 2006, published 2009).

Turning to `C[C@@H]1[C@H](O)[C@@H](C)/C=C/C=C/C=C/C=C/C=C/C=C/C=C/[C@H](O[C@@H]2O[C@H](C)[C@@H](O)[C@H](N)[C@@H]2O)C[C@@H]2O[C@](O)(C[C@@H](O)C[C@@H](O)[C@H](O)CC[C@@H](O)C[C@@H](O)CC(=O)O[C@H]1C)C[C@H](O)[C@H]2C(=O)O` [Amphotericin B, reference compound], the “effect on vitality of Calu-3 cells (in words)” value was “No damaging effect”. The “TEER after 24 hours Mean [%]” value under setting [1] came out at 67%. Further, the “TEER after 2 hours Mean [%]” value under setting [2] is 108%. Further, the “TEER after 24 hours Mean [%]” value under setting [3] came out at 64%. Besides, the “TEER after 2 hours Mean [%]” value (dilution 1:5) was found to be 80%.

Vitamin E TPGS: the “TEER after 24 hours Mean [%]” value under setting [1] is reported as 50%, the “TEER after 24 hours Mean [%]” value under setting [3] was 49% and the “TEER after 24 hours Mean [%]” value under setting [4] is 51%. For the same molecule, the “TEER after 2 hours Mean [%]” value runs as follows: under setting [2], 47%; (dilution 1:5) 48%; (dilution 1:10) 47%.

Regarding `OC[C@H]1O[C@@H]2O[C@H]3[C@H](O)[C@@H](O)[C@@H](O[C@H]4[C@H](O)[C@@H](O)[C@@H](O[C@H]5[C@H](O)[C@@H](O)[C@@H](O[C@H]6[C@H](O)[C@@H](O)[C@@H](O[C@H]7[C@H](O)[C@@H](O)[C@@H](O[C@H]8[C@H](O)[C@@H](O)[C@@H](O[C@H]9[C@H](O)[C@@H](O)[C@@H](O[C@H]1[C@H](O)[C@H]2O)O[C@@H]9CO)O[C@@H]8CO)O[C@@H]7CO)O[C@@H]6CO)O[C@@H]5CO)O[C@@H]4CO)O[C@@H]3CO` [Gamma-CD, γ-cyclodextrin], the “TEER after 24 hours Mean [%]” value under setting [1] was found to be 41%, the “TEER after 24 hours Mean [%]” value under setting [3] was found to be 46% and the “TEER after 24 hours Mean [%]” value under setting [4] was determined as 44%. In addition, the “TEER after 2 hours Mean [%]” value under setting [2] is listed as 61%, the “TEER after 2 hours Mean [%]” value (dilution 1:5) was determined as 69% and the “TEER after 2 hours Mean [%]” value (dilution 1:10) was found to be 65%.

Take Captisol: the “TEER after 24 hours Mean [%]” value runs as follows: under setting [1], 58%; under setting [3], 56%; under setting [4], 66%. For the same molecule, the “TEER after 2 hours Mean [%]” value by setting is: under setting [2], 114%; (dilution 1:5) 98%; (dilution 1:10) 83%.

For `O=C1O[C@H]([C@@H](O)CO)C([O-])=C1O.[Na+]` [Sodium Ascorbate], the “TEER after 24 hours Mean [%]” value under setting [1] was 70%, the “TEER after 24 hours Mean [%]” value under setting [3] worked out at 66% and the “TEER after 24 hours Mean [%]” value under setting [4] is on record as 51%. Further, the “TEER after 2 hours Mean [%]” value is, setting by setting: under setting [2], 22%; (dilution 1:5) 70%; (dilution 1:10) 57%.

As for `O=C1NS(=O)(=O)c2ccccc21.[Na]` [Saccharin-Natrium], the “TEER after 24 hours Mean [%]” value is, setting by setting: under setting [1], 43%; under setting [3], 50%. For the same molecule, the “TEER after 2 hours Mean [%]” value amounted to 55% under setting [2] and 55% (dilution 1:5).

Consider `CCCCCCCCCCCCOS(=O)(=O)[O-].[Na+]` [SDS, reference compound], for which the “TEER after 24 hours Mean [%]” value (positive control, 0.1% w/v in KRB, passages p44U, p45U, p46U, p47U) was 10% and 6% and 8%.

Regarding `NC[C@H]1O[C@H](O[C@H]2[C@H](O)[C@@H](O[C@H]3O[C@H](CO)[C@@H](O)[C@H](N)[C@H]3O)[C@H](N)C[C@@H]2N)[C@H](N)C[C@@H]1O` [Tobramycin (T100), Tobramycin, reference compound], the “effect on vitality of Calu-3 cells (in words)” value was “No damaging effect”. Further, the “TEER after 24 hours Mean [%]” value under setting [1] was determined as 46%. Moreover, under setting [2], the “TEER after 2 hours Mean [%]” value was 94%. The “TEER after 24 hours Mean [%]” value under setting [3] is 79%. The “TEER after 2 hours Mean [%]” value (dilution 1:5) was determined as 123%.

In the case of `O=C(O)CC(O)(CC(=O)O)C(=O)O` [Citric acid], the “TEER after 24 hours Mean [%]” value reads like this: under setting [1], 53%; under setting [3], 44%. Further, the “TEER after 2 hours Mean [%]” value by setting is: under setting [2], 105%; (dilution 1:5) 40%.

As to “2-hydroxypropyl-β-cyclodextrin [Example 2-HP-β-CD]”, the “TEER after 24 hours Mean [%]” value runs as follows: under setting [1], 45%; under setting [3], 77%; under setting [4], 73%. The “TEER after 2 hours Mean [%]” value is 59% under setting [2], 86% (dilution 1:5) and 90% (dilution 1:10).
